Data: ChEMBL document CHEMBL5625202, “Synthesis, characterization and anti-breast cancer activities of stachydrine derivatives” (Eur J Med Chem, 2023)
Calls of active or inactive are those of the source. The rule behind the calls is not given here.

Columns and labels:
[1] = Prodrug conversion in carboxylesterase (unknown origin) solution assessed as drug hydrolysis by measuring stachydrine release at 3 to 20 hrs; format: ADME, Homo sapiens; conditions: time 3-20 hrs
[2] = Prodrug conversion in cell culture medium containing 10% FBS assessed as drug hydrolysis by measuring stachydrine release at 3 to 20 hrs; format: ADME; conditions: cattle; time 3-20 hrs
[3] = Toxicity in BALB/c mouse implanted with mouse 4T1 cells assessed as change in liver histopathology at 0.2 mmol/Kg, po administered once every day for 14 days; format: organism-based; conditions: in vivo, 336 h, time 14 day
[4] = Toxicity in BALB/c mouse implanted with mouse 4T1 cells assessed as increase in monocytes at 0.2 mmol/Kg, po administered once every day for 14 days by routine blood analysis; format: organism-based; conditions: in vivo, 336 h, time 14 day
[5] = Oral bioavailability in Sprague-Dawley rat at 10 mg/kg measured upto 24 hrs by LC-MS/MS analysis; format: ADME, organism-based; conditions: in vivo
[6] = system: 4T1; assay: Induction of apoptosis in mouse 4T1 cells assessed as caspase-3 activation at 10 uM incubated for 24 hrs by Western blot analysis; format: functional, cell-based
[7] = system: 4T1; assay: Induction of apoptosis in mouse 4T1 cells assessed as apoptotic rate at 10 micromol/L incubated for 24 hrs by Annexin-V/PI staining based flow cytometry relative to control; format: functional; conditions: dose 10 µmol/L, at 10 µM
[8] = Toxicity in BALB/c mouse implanted with mouse 4T1 cells assessed as blurred spleen morphology at 0.2 mmol/Kg, po administered once every day for 14 days; format: organism-based; conditions: in vivo, 336 h, time 14 day
[9] = system: 4T1; assay: Induction of apoptosis in mouse 4T1 cells assessed as apoptotic rate at 40 micromol/L incubated for 24 hrs by Annexin-V/PI staining based flow cytometry relative to control; format: functional; conditions: dose 40 µmol/L, at 40 µM
[10] = Toxicity in BALB/c mouse implanted with mouse 4T1 cells assessed as splenic edema at 0.2 mmol/Kg, po administered once every day for 14 days; format: organism-based; conditions: in vivo, 336 h, time 14 day
[11] = Toxicity in BALB/c mouse implanted with mouse 4T1 cells assessed as increase in splenic red pulp at 0.2 mmol/Kg, po administered once every day for 14 days; format: organism-based; conditions: in vivo, 336 h, time 14 day
[12] = Toxicity in BALB/c mouse implanted with mouse 4T1 cells assessed as increase in ALT level at 0.2 mmol/Kg, po administered once every day for 14 days by routine blood analysis; format: organism-based; conditions: in vivo, 336 h, time 14 day
[13] = system: 4T1; assay: Antitumor activity against mouse 4T1 cells implanted in BALB/c mouse assessed as tumor cell shrinkage at 0.2 mmol/Kg, po administered once every day for 14 days by histological staining based analysis; format: functional, organism-based; conditions: time 14.0 day
[14] = Tmax in Sprague-Dawley rat plasma at 10 mg/kg, po measured upto 24 hrs by LC-MS/MS analysis; format: ADME, organism-based
[15] = Toxicity in BALB/c mouse implanted with mouse 4T1 cells assessed as reduction in spleen index at 0.2 mmol/Kg, po administered once every day for 14 days relative to control; format: organism-based; parameters: scale not given: the % may be the effect or the level left; conditions: in vivo, 336 h, at 0.2 mmol/kg, time 14 day
[16] = Half life in Sprague-Dawley rat plasma at 10 mg/kg, po measured upto 24 hrs by LC-MS/MS analysis; format: ADME, organism-based
[17] = Toxicity in BALB/c mouse implanted with mouse 4T1 cells assessed as body weight loss at 0.2 mmol/Kg, po administered once daily for 14 days; format: organism-based; conditions: in vivo, 336 h, time 14 day
[18] = system: 4T1; assay: Induction of apoptosis in mouse 4T1 cells assessed as increase in Bax expression at 10 uM incubated for 24 hrs by Western blot analysis; format: functional, cell-based
[19] = Prodrug conversion in serum (unknown origin) assessed as drug hydrolysis by measuring stachydrine release at 3 to 20 hrs; format: ADME, cell-free; conditions: time 3-20 hrs
[20] = system: 4T1; assay: Inhibition of cell migration in mouse 4T1 cells assessed as reduction in wound healing incubated for 24 hrs by microscopic analysis; format: functional, cell-based
[21] = system: 4T1; assay: Induction of mitochondrial membrane potential loss in mouse 4T1 cells assessed as red fluorescence at 10 uM incubated for 24 hrs by JC-1 staining based flow cytometric analysis (Rvb= 87.9%); format: cell-based
[22] = system: 4T1; assay: Anticancer activity against mouse 4T1 cells assessed as inhibition of cell growth incubated for 72 hrs by CCK-8 assay; format: functional, cell-based; conditions: 4T1, 72 h
[23] = system: 4T1; assay: Induction of apoptosis in mouse 4T1 cells assessed as increase in cleaved caspase-3 expression at 10 uM incubated for 24 hrs by Western blot analysis; format: functional, cell-based
[24] = Toxicity in BALB/c mouse implanted with mouse 4T1 cells assessed as change in heart histopathology at 0.2 mmol/Kg, po administered once every day for 14 days; format: organism-based; conditions: in vivo, 336 h, time 14 day
[25] = system: 4T1; assay: Induction of cell cycle arrest in mouse 4T1 cells assessed as accumulation of cells in G0/G1 phase at 10 uM incubated for 24 hrs by flow cytometry relative to control; format: functional
[26] = system: 4T1; assay: Induction of apoptosis in mouse 4T1 cells assessed as apoptotic rate at 1.25 micromol/L incubated for 24 hrs by Annexin-V/PI staining based flow cytometry relative to control; format: functional; conditions: dose 1.25 µmol/L, at 1.25 µM
[27] = system: 4T1; assay: Induction of apoptosis in mouse 4T1 cells assessed as decrease in Bcl2 expression at 10 uM incubated for 24 hrs by Western blot analysis; format: functional, cell-based
[28] = system: 4T1; assay: Anticancer activity against mouse 4T1 cells assessed as inhibition of cell growth incubated for 48 hrs by CCK-8 assay; format: functional, cell-based; conditions: 4T1, 48 h
[29] = system: 4T1; assay: Inhibition of cell migration in mouse 4T1 cells assessed as expansion of wound area at 30 micromol/mL incubated for 24 hrs by microscopic analysis; format: functional, cell-based; conditions: dose 30.0 µmol/ml
[30] = Toxicity against BALB/c mouse implanted with mouse 4T1 cells assessed as animal death at 0.2 mmol/Kg, po administered once every day for 14 days; format: organism-based; conditions: in vivo, 336 h, time 14 day
[31] = Toxicity in BALB/c mouse implanted with mouse 4T1 cells assessed as effect on CREA level at 0.2 mmol/Kg, po administered once every day for 14 days by routine blood analysis; format: organism-based; conditions: in vivo, 336 h, time 14 day
[32] = system: 4T1; assay: Anticancer activity against mouse 4T1 cells assessed as inhibition of cell growth incubated for 24 hrs by CCK-8 assay; format: functional, cell-based; conditions: 4T1, 24 h
[33] = AUC (0 to t) in Sprague-Dawley rat plasma at 10 mg/kg, po measured upto 24 hrs by LC-MS/MS analysis; format: ADME, organism-based
[34] = system: 4T1; assay: Induction of mitochondrial membrane potential loss in mouse 4T1 cells assessed as green fluorescence at 10 uM incubated for 24 hrs by JC-1 staining based flow cytometric analysis (reference value: 11.7%); format: cell-based
[35] = Toxicity in BALB/c mouse implanted with mouse 4T1 cells assessed as increase in mean platelet volume at 0.2 mmol/Kg, po administered once every day for 14 days by routine blood analysis; format: organism-based; conditions: in vivo, 336 h, time 14 day
[36] = Toxicity in BALB/c mouse implanted with mouse 4T1 cells assessed as effect on BUN level at 0.2 mmol/Kg, po administered once every day for 14 days by routine blood analysis; format: organism-based; conditions: in vivo, 336 h, time 14 day
[37] = system: 4T1; assay: Antitumor activity against mouse 4T1 cells implanted in BALB/c mouse assessed as tumor cell necrosis at 0.2 mmol/Kg, po administered once every day for 14 days by histological staining based analysis; format: functional, organism-based; conditions: time 14.0 day
[38] = system: 4T1; assay: Induction of G0/G1 phase cell cycle arrest in mouse 4T1 cells assessed as decrease in S phase cells at 1.25 to 40 uM incubated for 24 hrs by flow cytometry; format: functional, cell-based; conditions: dose 1.25-40 µM
[39] = Cmax in Sprague-Dawley rat plasma at 10 mg/kg, po measured upto 24 hrs by LC-MS/MS analysis; format: ADME, organism-based

CCCCCCCCCCCCOC(=O)C1CCC[N+]1(C)C.[Cl-] (centres undefined)
Drug metabolism [1]: Metabolite_Detected
Drug metabolism [2]: Metabolite_Detected
Activity [3]: Non-Toxic
Activity [4]: Non-Toxic
bioavailability [5]: 79.6%
Activity [6]: Active
Activity [7]: 59%
Activity [8]: Toxic
Activity [9]: 71.3%
Activity [10]: Toxic
Activity [11]: Toxic
Activity [12]: Toxic
Activity [13]: Active
Tmax [14]: 2 h
Activity [15]: 60%
half-life [16]: 7.62 h
Activity [17]: Toxic
Activity [18]: Active
Drug metabolism [19]: Metabolite_Detected
inhibition [20]: Dose-Dependent Effect
Activity [21]: 43.1%
IC50 [22]: 8.35 µM
Activity [23]: Active
Activity [24]: Non-Toxic
Activity [25]: ~56%
Activity [26]: 38.5%
Activity [27]: Active
IC50 [28]: 17.9 µM
inhibition [29]: Active
Activity [30]: Non-Toxic
Activity [31]: Non-Toxic
IC50 [32]: 24.7 µM
AUC(0-t) at 24 h [33]: 14800 ng·h/mL
Activity [34]: 56.8%
Activity [35]: Non-Toxic
Activity [36]: Non-Toxic
Activity [37]: Active
Activity [38]: Active
Cmax [39]: 6100 ng/mL
